Laboratory results taken from patent US20220323325A1, “COMPOSITIONS COMPRISING DISSUBSTITUTE TEREPHTHALATES AND ALSO LIGHT PROECTION FILTER SUBSTANCES, DEODORANT AND/OR ANTIPERSPIRANT ACTIVE INGREDIENTS” (Evonik Operations GmbH, priority 2019, published 2022).

Assay: Dissolution capacity of UV light protection filters
Format: physicochemical
Settings: 22° C., percentage by weight; for dissolution capacity for BEMT (maximal soluble amount): Bis-Ethylhexyloxyphenol Methoxyphenyl Triazine in the compound as solvent; for dissolution capacity for BMDM (maximal soluble amount): Butyl Methoxydibenzoylmethane in the compound as solvent; for dissolution capacity for EHT (maximal soluble amount): Ethylhexyl Triazone in the compound as solvent
Description: To test the dissolution capacity of UV light protection filters, three representative UVA or UVB light protection filters were selected representatively. These are: • Butyl Methoxydibenzoylmethane (BMDM) • Ethylhexyl Triazone (EHT) • Bis-Ethylhexyloxyphenol Methoxyphenyl Triazine (BEMT).
To determine the dissolution capacity for these three UV light protection filters, a certain amount (50 g) of one of the compounds according to the invention was initially charged in each case and temperature-controlled at 22° C. A percentage by weight of a UV light protection filter was added and stirred until this amount had fully and homogeneously dissolved. This procedure was repeated until the maximal soluble amount of the UV light protection filter had been exceeded. […] If the maximum concentration had been roughly determined in this manner, a fine determination of the concentration range was repeated around this maximum concentration using smaller weighed amounts of the UV light protection filter.

Row | Structure (SMILES) | dissolution capacity for BEMT (maximal soluble amount) [%] | dissolution capacity for BMDM (maximal soluble amount) [%] | dissolution capacity for EHT (maximal soluble amount) [%]
1 | CCCCCCCC(=O)OCCOc1ccccc1 [2-Phenoxyethyl octanoate, reference compound] | 11 | 18 | 6
2 | CC(C)CCOC(=O)c1ccc(C(=O)OCCC(C)C)cc1 [Di(iso)pentyl terephthalate] | 13 | 22 | 14
3 | CCCCOC(=O)c1ccc(C(=O)OCCCC)cc1 [Di(n-)butane terephthalate] | 23 | 23 | 18
